Measured values: patent US12661345B2, “Compositions for the treatment of hypertension” (The George Institute for Global Health, priority 2017, dated 2026)

Assays:
[1] = system: participants with migraine; assay: Subject status / participant withdrawals by visit in the 3×3 factorial trial
LDL = LDL laboratory test in the 3×3 factorial trial; type: in vivo, human; conditions: Week 12 v/s Baseline
Description: (§1) There was a 4 week screening period and another 4-week post study drug observational period.
(§2) Group 2 received the low-dose BP lowering combination and simvastatin (i.e., telmisartan 20 mg+amlodipine 2.5 mg+simvastatin). Group 3 received the low-dose BP lowering combination and placebo (i.e., telmisartan 20 mg+amlodipine 2.5 mg+placebo). […] Group 9 received double placebo.
Change in DBP and SBP • 2. Change in LDL Secondary Outcomes: • 1. Tolerability: • a. […] Difference between groups in participant withdrawals from treatment • 2. Safety: Percentage with any severe adverse event (SAE) • 3. Medication adherence: self-reported measures, pill counts BP Measurement:
Potassium (K+), sodium (Na+), serum creatinine and LDL were measured at screening and at the 12-week end of treatment follow-up visit.
(§3) All analyses of study outcomes were conducted according to the principle of intention-to-treat. The analyses of continuous outcomes such SBP and LDL-cholesterol at 12 weeks was performed using ANCOVA including the treatment arm and baseline values as a covariate. Additional analyses included interim measurements in a longitudinal model including treatment arm, visit, and treatment by visit interaction as well as the baseline measurement. Within-patient correlations were modelled using generalized estimating equations. A similar approach was applied to binary endpoints with log-binomial regression used in place of linear regression. There were also pre-defined subgroup analyses, baseline BP, baseline LDL, gender and age.

[2] = system: participants with migraine; assay: Office blood pressure in 12-week double blind randomized 3×3 factorial trial; type: in vivo, human
Description: as §1
There was a 4-week screening period and another 4-week post study drug observational period.
as §2
Office BP was measured following the recommendations of the Australian National Heart Foundation. Participants were rested in the seated position for 5 minutes, an appropriate cuff size was selected and 3 measurements of BP were recorded using an Omron HEM907 monitor or equivalent validated automated digital BP monitor. Principles of automated office BP measurements were applied whereby the patient was left alone during BP recording.
as §3

[3] = Randomization (baseline, before treatment)
[4] = Randomization, BP arm versus placebo, interval in brackets
[5] = Week 4, BP arm versus placebo, interval in brackets

## CC(C)NCC(O)COc1cccc2ccccc12 (centres unmarked) [Propranolol, propranolol]
[1]; Week 4
  Discontinuing: Deceased (percent): (0.0%)
[1]; Week 8
  Discontinuing: Deceased (percent): (0.0%)
[1]; Week 12
  Discontinuing: Deceased (percent): (0.0%)
LDL
  Change in LDL from baseline to 12 weeks Mean (SD): 10 −0.9 (1.03) mmol/l
  Change in LDL from baseline to 12 weeks Q1: -1.3 mmol/L
  Change in LDL from baseline to 12 weeks Q2: -0.7 mmol/L
  Change in LDL from baseline to 12 weeks Q3: -0.2 mmol/L
  Change in LDL from baseline to 12 weeks max: 0 mmol/L
  Change in LDL from baseline to 12 weeks min: -3 mmol/L
[2]; [3]
  Diastolic Blood Pressure Mean (SD): 10 85.1 (12.48) mmHg
  Diastolic Blood Pressure Q1: 75.7 mmHg
  Diastolic Blood Pressure Q2: 77.7 mmHg
  Diastolic Blood Pressure Q3: 95.7 mmHg
  Diastolic Blood Pressure min: 73 mmHg
  Systolic Blood Pressure Mean (SD): 10 130.4 (16.09) mmHg
  Systolic Blood Pressure Q1: 116.7 mmHg
  Systolic Blood Pressure Q2: 129.3 mmHg
  Systolic Blood Pressure Q3: 146.3 mmHg
  Systolic Blood Pressure max: 153 mmHg
[2]; [4]
  Diastolic Blood Pressure Mean difference: 3.67 (−4.68, 12.02) mmHg
  Systolic Blood Pressure Mean difference: 6.52 (−4.86, 17.91) mmHg
[2]; Week 4
  Diastolic Blood Pressure Mean (SD): 10 75.5 (9.75) mmHg
  Diastolic Blood Pressure Q1: 69.0 mmHg
  Diastolic Blood Pressure Q2: 73.3 mmHg
  Diastolic Blood Pressure Q3: 83.3 mmHg
  Diastolic Blood Pressure max: 89 mmHg
  Diastolic Blood Pressure min: 62 mmHg
  Diastolic Blood Pressure, Change from Baseline, Mean (SD): 10 −9.6 (5.66)
  Diastolic Blood Pressure, Change from Baseline, Q1: −13.0
  Diastolic Blood Pressure, Change from Baseline, Q2: −10.3
  Diastolic Blood Pressure, Change from Baseline, Q3: −4.3
  Diastolic Blood Pressure, Change from Baseline, max: −1
  Diastolic Blood Pressure, Change from Baseline, min: −19
  Systolic Blood Pressure Mean (SD): 10 121.3 (14.92) mmHg
  Systolic Blood Pressure Q1: 108.7 mmHg
  Systolic Blood Pressure Q2: 116.8 mmHg
  Systolic Blood Pressure Q3: 135.3 mmHg
  Systolic Blood Pressure max: 146 mmHg
  Systolic Blood Pressure, Change from Baseline, Mean (SD): 10 −9.1 (5.63)
  Systolic Blood Pressure, Change from Baseline, Q1: −13.3
  Systolic Blood Pressure, Change from Baseline, Q2: −8.5
  Systolic Blood Pressure, Change from Baseline, Q3: −5.0
  Systolic Blood Pressure, Change from Baseline, max: −1
  Systolic Blood Pressure, Change from Baseline, min: −18
[2]; [5]
  Diastolic Blood Pressure Mean difference: −3.53 (−11.29, 4.22) mmHg
  Systolic Blood Pressure Mean difference: −2.60 (−14.65, 9.45) mmHg
[2]; Week 4, interval in brackets
  Diastolic Blood Pressure, Change from Baseline, Mean difference: −7.53 (−13.19, −1.88)
  Systolic Blood Pressure, Change from Baseline, Mean difference: −9.23 (−17.31, −1.16)
[2]; Week 8
  Diastolic Blood Pressure Mean (SD): 10 75.0 (8.82) mmHg
  Diastolic Blood Pressure Q1: 66.3 mmHg
  Diastolic Blood Pressure Q2: 76.5 mmHg
  Diastolic Blood Pressure Q3: 83.3 mmHg
  Diastolic Blood Pressure max: 85 mmHg
  Diastolic Blood Pressure min: 61 mmHg
  Diastolic Blood Pressure, Change from Baseline, Mean (SD): 10 −10.1 (6.39)
  Diastolic Blood Pressure, Change from Baseline, Q1: −12.7
  Diastolic Blood Pressure, Change from Baseline, Q2: −10.8
  Diastolic Blood Pressure, Change from Baseline, Q3: −7.0
  Diastolic Blood Pressure, Change from Baseline, max: 0
  Diastolic Blood Pressure, Change from Baseline, min: −22
  Systolic Blood Pressure Mean (SD): 10 118.6 (12.56) mmHg
  Systolic Blood Pressure Q1: 112.3 mmHg
  Systolic Blood Pressure Q2: 119.5 mmHg
  Systolic Blood Pressure Q3: 127.0 mmHg
  Systolic Blood Pressure max: 135 mmHg
  Systolic Blood Pressure min: 95 mmHg
  Systolic Blood Pressure, Change from Baseline, Mean (SD): 10 −11.8 (11.44)
  Systolic Blood Pressure, Change from Baseline, Q1: −18.0
  Systolic Blood Pressure, Change from Baseline, Q2: −11.8
  Systolic Blood Pressure, Change from Baseline, Q3: −4.3
  Systolic Blood Pressure, Change from Baseline, max: 6
